Experimental data reported in patent US10196363B2, “Dihydropyrimidin-2-one compounds and medical use thereof” (JAPAN TOBACCO INC., priority 2014, dated 2019).
Read-outs that look alike come from different tables or passages of the source.

What was measured:
human RORγ = target: T1, human RORγ (Homo sapiens, UniProt P51449); experiment: In vitro assay of inhibitory effect against RORγ transcriptional activity (GAL4-hRORγ LBD luciferase reporter gene assay in CHO cells); format: cell-based; conditions: for hRORγ luciferase activity, %-of-control: vehicle-control 0.2% DMSO alone = 100%
T1 construct: human RORγ, from Ser253 to Lys518; expressed in transfected cells; host or cells: CHO cells (Chinese hamster ovary), transient co-transfection with pG5-Luc
T1 sequence (P51449 253-518): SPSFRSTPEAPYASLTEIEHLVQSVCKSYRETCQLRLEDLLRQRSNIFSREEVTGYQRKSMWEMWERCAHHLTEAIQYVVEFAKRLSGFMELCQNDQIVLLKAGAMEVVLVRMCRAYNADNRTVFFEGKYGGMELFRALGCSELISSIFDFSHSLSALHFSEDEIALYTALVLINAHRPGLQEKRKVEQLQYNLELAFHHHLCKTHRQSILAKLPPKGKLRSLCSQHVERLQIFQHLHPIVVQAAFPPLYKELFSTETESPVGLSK
Outline: (§1)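 GAL4-DBD fused to RORγ LBD (human Ser253–Lys518; mouse Ile251–Lys516) was transiently co-transfected with GAL4-driven pG5-Luc firefly luciferase into CHO cells. Cells were treated with 8 concentrations of compound (0.2% DMSO) for 2 days at 37 °C, then luminescence was read. EC50 was fitted from %-of-vehicle control.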

mouse RORγ = target: T2, mouse RORγ (Mus musculus, UniProt P51450); experiment: In vitro assay of inhibitory effect against RORγ transcriptional activity (GAL4-mRORγ LBD luciferase reporter gene assay in CHO cells); format: cell-based; conditions: for mRORγ luciferase activity, %-of-control: vehicle-control 0.2% DMSO alone = 100%
T2 construct: mouse RORγ, from Ile251 to Lys516; expressed in transfected cells; host or cells: CHO cells (Chinese hamster ovary), transient co-transfection with pG5-Luc
T2 sequence (P51450 251-516): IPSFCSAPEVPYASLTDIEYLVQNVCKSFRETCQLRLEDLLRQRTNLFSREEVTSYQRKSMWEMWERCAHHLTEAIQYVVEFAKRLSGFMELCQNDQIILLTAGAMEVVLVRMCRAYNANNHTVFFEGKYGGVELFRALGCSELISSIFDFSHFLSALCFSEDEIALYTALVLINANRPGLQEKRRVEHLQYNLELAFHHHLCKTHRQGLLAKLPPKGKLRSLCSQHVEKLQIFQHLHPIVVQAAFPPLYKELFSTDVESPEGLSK
Outline: as §1

[1] = GAL4-hRORγ LBD / pG5-Luc in CHO cells, 2 days incubation
[2] = value in parentheses beside the > EC50 bound
[3] = GAL4-mRORγ LBD / pG5-Luc in CHO cells, 2 days incubation
[4] = GAL4-hRORγ LBD luciferase reporter, CHO cells, read-out: LUC EC50 hRORγ
[5] = GAL4-mRORγ LBD luciferase reporter, CHO cells, read-out: LUC EC50 mRORγ
[6] = value in parentheses beside the EC50 bound

| SMILES | EC50 (human RORγ; [1]) [nM] | EC50 (mouse RORγ; [3]) [nM] | EC50 (human RORγ; [4]) [nM] | EC50 (mouse RORγ; [5]) [nM] | further results |
| --- | --- | --- | --- | --- | --- |
| CC(C)C1=CN(CCC(=O)O)C(=O)N[C@]1(C)c1ccc(C2CCCC2)c(Cl)c1 [Example 155] | > 8000 | > 8000 |  |  | hRORγ luciferase activity, %-of-control (human RORγ; [2]): (83%); mRORγ luciferase activity, %-of-control (mouse RORγ; [2]): (81%) |
| CC(C)C1=CN(CCC(=O)O)C(=O)N[C@@]1(C)c1ccc(C2CCCC2)c(Cl)c1 [Example 156] | 520 | 166 |  |  |  |
| CC(C)OCc1ccc([C@]2(C)NC(=O)N(CCC(=O)O)C=C2C(C)C)cc1Cl [Example 157] | 497 | 255 |  |  |  |
| CC(C)C1=CN(CCC(=O)O)C(=O)N[C@@]1(C)c1ccc(CC[Si](C)(C)C)c(Cl)c1 [Example 158] | 30 | 23 |  |  |  |
| CC(C)C1=CN(c2ccc(C(=O)O)cc2)C(=O)N[C@@]1(C)c1ccc(CCC(C)(C)C)c(Cl)c1 [Example 159, 4-{(S)-4-[3-chloro-4-(3,3-dimethyl-butyl)-phenyl]-5-isopropyl-4-methyl-2-oxo-3,4-dihydro-2H-pyrimidin-1-yl}-benzoic Acid] | 21 | 23 |  |  |  |
| CC(C)C1=CN(CCC(=O)O)C(=O)N[C@@]1(C)c1cc(F)c(OCc2ccccc2)c(Cl)c1 [Example 161] | 154 | 47 |  |  |  |
| CC(C)C1=CN([C@H]2CC(=O)N(CC(=O)O)C2)C(=O)N[C@@]1(C)c1ccc(CCC(C)(C)C)c(Cl)c1 [Example 162] | 172 | 275 |  |  |  |
| CC(C)C1=CN([C@@H]2CC(=O)N(CC(=O)O)C2)C(=O)N[C@@]1(C)c1ccc(CCC(C)(C)C)c(Cl)c1 [Example 163] | 143 | 267 |  |  |  |
| CC(C)C1=CN(CCC(=O)O)C(=O)N[C@@]1(C)c1cc(F)c(OCC(C)(C)C)c(Cl)c1 [Example 164] | 18 | 11 |  |  |  |
| CC(C)C1=CN(CCC(=O)O)C(=O)N[C@@]1(C)c1cc(F)c(OCCC(C)(C)C)c(Cl)c1 [Example 165] | 27 | 17 |  |  |  |
| CC(C)C1=CN(CCC(=O)O)C(=O)N[C@@]1(C)c1ccc(C2CC3(CCC3)C2)c(Cl)c1 [Example 173] | 22 | 11 |  |  |  |
| CC(C)C1=CN(CCC(=O)O)C(=O)N[C@@]1(C)c1cc(F)c(CCC(C)(C)C)c(Cl)c1 [Example 175] | 9 | 12 |  |  |  |
| CC(C)C1=CN(CCC(=O)O)C(=O)N[C@@]1(C)c1ccc(CCC(C)(C)C)c(F)c1 [Example 176] | 22 | 13 |  |  |  |
| CCC(CC)Cc1ccc([C@]2(C)NC(=O)N(CCC(=O)O)C=C2C(C)C)cc1Cl [Example 177] | 17 | 17 |  |  |  |
| CCCC(CCC)Cc1ccc([C@]2(C)NC(=O)N(CCC(=O)O)C=C2C(C)C)cc1Cl [Example 178] | 19 | 21 |  |  |  |
| CC(C)C1=CN(CCC(=O)O)C(=O)N[C@@]1(C)c1ccc(C(C)CC(C)(C)C)c(Cl)c1 (some centres unmarked) [Example 179] | 64 | 27 |  |  |  |
| CC(C)COc1ccc([C@]2(C)NC(=O)N(CCC(=O)O)C=C2C(C)C)cc1Cl [Example 183] | 118 | 78 |  |  |  |
| CC(C)C1=CN(CCC(=O)O)C(=O)N[C@@]1(C)c1ccc(CCC(C)(C)C(F)(F)F)c(Cl)c1 [Example 185] | 9 | 14 |  |  |  |
| CC(C)C1=CN(C23CC(C(=O)O)(C2)C3)C(=O)N[C@@]1(C)c1ccc(CCC(C)(C)C)c(Cl)c1 [Example 186] | 91 | 116 |  |  |  |
| CC(C)C1=CN(CCC(=O)O)C(=O)N[C@@]1(C)c1cc(F)c(/C=C/C(C)(C)C)c(Cl)c1 [Example 189] | 30 | 22 |  |  |  |
| CC(C)CCOc1c(F)cc([C@]2(C)NC(=O)N(c3ccc(C(=O)O)cc3)C=C2C(C)C)cc1Cl [Example 192] |  |  | 17 | 11 |  |

| SMILES | EC50 (human RORγ; [1]) [nM] | EC50 (mouse RORγ; [3]) [nM] | EC50 (human RORγ; [4]) [nM] | EC50 (mouse RORγ; [5]) [nM] | further results |
| --- | --- | --- | --- | --- | --- |
| CC(C)C1=CN(c2ccc(C(=O)O)cc2)C(=O)N[C@@]1(C)c1cc(F)c(OCC(C)(C)C)c(Cl)c1 [Example 193] |  |  | 18 | 19 |  |
| CC(C)COc1c(F)cc([C@]2(C)NC(=O)N(CCC(=O)O)C=C2C(C)C)cc1Cl [Example 194] |  |  | 58 | 28 |  |
| CC(C)CCOc1c(F)cc([C@]2(C)NC(=O)N(CCC(=O)O)C=C2C(C)C)cc1Cl [Example 195] |  |  | 18 | 12 |  |
| CC(C)C1=CN(c2ccc(C(=O)O)cc2)C(=O)N[C@@]1(C)c1ccc(CCC(C)(C)C(F)(F)F)c(Cl)c1 [Example 196] |  |  | 9 | 17 |  |
| CO[C@H]1C[C@H](N2C=C(C(C)(C)CCC(=O)O)[C@](C)(c3ccc(CCC(C)(C)C)c(Cl)c3)NC2=O)C1 [Example 197] |  |  | 13 | 23 |  |
| COC[C@H]1C[C@H](N2C=C(C(C)(C)CCC(=O)O)[C@](C)(c3ccc(CCC(C)(C)C)c(Cl)c3)NC2=O)C1 [Example 198] |  |  | 12 | 26 |  |
| CC(C)(C)CCc1ccc([C@]2(C)NC(=O)N(C3CCOCC3)C=C2[C@H]2C[C@@H](C(=O)O)C2)cc1Cl [Example 199] |  |  | 70 | 136 |  |
| CO[C@H]1C[C@H](N2C=C([C@H]3C[C@@H](C(=O)O)C3)[C@](C)(c3ccc(CCC(C)(C)C)c(Cl)c3)NC2=O)C1 [Example 200] |  |  | 14 | 23 |  |
| CC(C)CC1=CN(CCC(=O)O)C(=O)N[C@@]1(C)c1ccc(OCC(C)(C)C)c(Cl)c1F [Example 201] |  |  | 60 | 51 |  |
| CC(C)CCOc1ccc([C@]2(C)NC(=O)N(CCC(=O)O)C=C2CC(C)C)c(F)c1Cl [Example 202] |  |  | 87 | 52 |  |
| CC(C)C1=CN(c2ccc(C(=O)O)cc2)C(=O)N[C@@]1(C)c1ccc(COC(C)(C)C)c(Cl)c1 [Example 203] |  |  | 30 | 21 |  |
| CC(C)C1=CN(Cc2ccc(C(=O)O)cc2)C(=O)N[C@@]1(C)c1ccc(CCC(C)(C)C)c(Cl)c1 [Example 204] |  |  | 14 | 17 |  |
| CC(C)(C)CCc1ccc([C@]2(C)NC(=O)N([C@H]3C[C@H](C(=O)O)C3)C=C2[C@H]2C[C@@H](CO)C2)cc1Cl [Example 205] |  |  | 281 | 427 |  |
| COC[C@H]1C[C@@H](C2=CN(CCC(=O)O)C(=O)N[C@@]2(C)c2ccc(CCC(C)(C)C)c(Cl)c2)C1 [Example 206] |  |  | 81 | 117 |  |
| CC(C)C1=CN(c2ccc(C(=O)O)cc2F)C(=O)N[C@@]1(C)c1ccc(CCC(C)(C)C)c(Cl)c1 [Example 207] |  |  | 9 | 18 |  |
| CC(C)C1=CN(c2ccc(F)c(C(=O)O)c2)C(=O)N[C@@]1(C)c1ccc(CCC(C)(C)C)c(Cl)c1 [Example 208] |  |  | 21 | 40 |  |
| COCCC(C)(C)CC1=CN(c2ccc(C(=O)O)cc2)C(=O)N[C@@]1(C)c1ccc(CCC(C)(C)C)c(Cl)c1 [Example 209] |  |  | 51 | 74 |  |
| COCCC1=CN(c2ccc(C(=O)O)cc2)C(=O)N[C@@]1(C)c1ccc(CCC(C)(C)C)c(Cl)c1 [Example 210] |  |  | 6 | 7 |  |
| COCCC1=CN(CCC(=O)O)C(=O)N[C@@]1(C)c1ccc(CCC(C)(C)C)c(Cl)c1 [Example 211] |  |  | 11 | 8 |  |
| COc1cc([C@@]2(C)NC(=O)N(CCC(=O)O)C=C2C(C)C)ccc1CCC(C)(C)C [Example 212] |  |  | > 8000 | > 8000 | hRORγ luciferase activity, %-of-control (human RORγ; [6]): (68%); mRORγ luciferase activity, %-of-control (mouse RORγ; [6]): (81%) |
